Measurements reported in PMC3116808 (Journal of natural products, 2011).
Values after ≈ are worked out from the molar mass of the structure shown.

What was measured:
Format in all cases: cell-based
[1] = test system: P388 lymphocytic leukemia cell line; test: Murine P388 lymphocytic leukemia cell line growth inhibition
NCI-H460 = test: Human cancer cell line minipanel: lung NCI-H460
KM20L2 = test: Human cancer cell line minipanel: colon KM20L2; settings: KM-20L2
DU-145 = test: Human cancer cell line minipanel: prostate DU-145
BXPC-3 = test: Human cancer cell line minipanel: pancreas BXPC-3
MCF-7 = test: Human cancer cell line minipanel: breast MCF-7; settings: MCF7
SF-268 = test: Human cancer cell line minipanel: CNS SF-268
[2] = test system: panel of murine and human cancer cell lines; test: Cancer cell growth inhibition, summary over the panel

Row | SMILES | ED50 [1] [ng/mL] | ED50 (nanomolar value in parentheses) [1] [nM] | GI50 (NCI-H460) [ng/mL] | GI50 (KM20L2) [ng/mL] | GI50 (DU-145) [ng/mL] | GI50 (BXPC-3) [ng/mL] | GI50 (MCF-7) [ng/mL] | GI50 (SF-268) [ng/mL] | GI50 [2] [ng/mL]
1 | CC[C@H](C)[C@@H]([C@@H](CC(=O)N1CCC[C@H]1[C@H](OC)[C@@H](C)C(=O)NCCc1ccc(O)cc1)OC)N(C)C(=O)[C@@H](NC(=O)[C@H](C(C)C)N(C)C)C(C)C [compound 9, Dov-Val-Dil-Dap-4-hydroxyphenethylamide] | 3.6 (≈ 5.01 nM) | 5.0 | – | – | – | – | – | – | –
2 | CC[C@H](C)[C@@H]([C@@H](CC(=O)N1CCC[C@H]1[C@H](OC)[C@@H](C)C(=O)Nc1ccc2ccccc2n1)OC)N(C)C(=O)[C@@H](NC(=O)[C@H](C(C)C)N(C)C)C(C)C [compound 4, Dov-Val-Dil-Dap-2-aminoquinoline] | 31 (≈ 42.8 nM) | 42.8 | 16 (≈ 22.1 nM) | 7.7 (≈ 10.6 nM) | 23 (≈ 31.7 nM) | 29 (≈ 40 nM) | 4.6 (≈ 6.34 nM) | 29 (≈ 40 nM) | –
3 | CC[C@H](C)[C@@H]([C@@H](CC(=O)N1CCC[C@H]1[C@H](OC)[C@@H](C)C(=O)Nc1ccc2ncccc2c1)OC)N(C)C(=O)[C@@H](NC(=O)[C@H](C(C)C)N(C)C)C(C)C [compound 5, Dov-Val-Dil-Dap-6-aminoquinoline] | 2.6 (≈ 3.59 nM) | 3.59 | 0.36 (≈ 0.497 nM) | 0.25 (≈ 0.345 nM) | 0.3 (≈ 0.414 nM) | 0.31 (≈ 0.428 nM) | 0.14 (≈ 0.193 nM) | 0.16 (≈ 0.221 nM) | 0.1 (≈ 0.138 nM)
4 | CC[C@H](C)[C@@H]([C@@H](CC(=O)N1CCC[C@H]1[C@H](OC)[C@@H](C)C(=O)NCCc1ccc(OP(=O)([O-])[O-])cc1)OC)N(C)C(=O)[C@@H](NC(=O)[C@H](C(C)C)N(C)C)C(C)C.[Na+].[Na+] [3b, Sodium Auristatin TP] | < 1 | < 1.2 | 0.88 | 0.61 | 0.54 | 46 | 0.68 | 1.25 | –
5 | CC[C@H](C)[C@@H]([C@@H](CC(=O)N1CCC[C@H]1[C@H](OC)[C@@H](C)C(=O)NCCc1ccc(OP(=O)([O-])[O-])cc1)OC)N(C)C(=O)[C@@H](NC(=O)[C@H](C(C)C)N(C)C)C(C)C.[K+].[K+] [3c, Potassium Auristatin TP] | 7.6 | 8.7 | – | – | – | – | – | – | –
